Measurements taken from ChEMBL document CHEMBL4393664, “2,4-Disubstituted quinazolines targeting breast cancer cells via EGFR-PI3K” (Eur J Med Chem, 2019).
Active and inactive are the calls of the source. The calls are words filed in the database; no cut-off is given here.

How the values were obtained:
[1] = test system: MDA-MB-231; assay: Cell cycle arrest in human MDA-MB-231 cells assessed as accumulation at G2 phase at 3 uM after 24 hrs by propidium iodide/RNase A staining-based flow cytometric analysis (reference value: 27.76%); assay type: functional
[2] = test system: MDA-MB-231; assay: Cell cycle arrest in human MDA-MB-231 cells assessed as accumulation at G1 phase at 6 uM after 24 hrs by propidium iodide/RNase A staining-based flow cytometric analysis (reference value: 49.17%); assay type: functional
[3] = test system: MDA-MB-231; assay: Induction of apoptosis in human MDA-MB-231 cells assessed as viable cells at 6 uM after 48 hrs by Annexin-V-FITC/propidium iodide staining based flow cytometry (reference value: 92.1%); assay type: functional; details: MDA-MB-231, 48 h, read-out: Activity
[4] = test system: MDA-MB-231; assay: Induction of apoptosis in human MDA-MB-231 cells assessed as late apoptotic cells at 6 uM after 48 hrs by Annexin-V-FITC/propidium iodide staining based flow cytometry (reference value: 2.38%); assay type: functional
[5] = test system: MCF7; assay: Induction of apoptosis in human MCF7 cells assessed as necrotic cells at 4 uM after 48 hrs by Annexin-V-FITC/propidium iodide staining based flow cytometry (reference value: 1.57%); assay type: functional
[6] = test system: MCF7; assay: Induction of apoptosis in human MCF7 cells assessed as viable cells at 6 uM after 48 hrs by Annexin-V-FITC/propidium iodide staining based flow cytometry (reference value: 91.1%); assay type: functional; details: MCF7, 48 h, read-out: Activity
[7] = test system: MDA-MB-231; assay: Induction of apoptosis in human MDA-MB-231 cells assessed as increase in Bax expression levels at 3 to 12 uM after 48 hrs by Western blot analysis; assay type: functional, cell-based
[8] = test system: MCF7; assay: Induction of apoptosis in human MCF7 cells assessed as increase in P53 expression at 3 to 12 uM after 48 hrs by Western blot analysis; assay type: functional, cell-based
[9] = biological target: Epidermal growth factor receptor (Homo sapiens) (UniProt P00533); assay: Inhibition of EGFR phosphorylation at Y992 residues in human MCF7 cells after 8 hrs by Western blot analysis; assay type: cell-based
[10] = biological target: Epidermal growth factor receptor (Homo sapiens) (UniProt P00533); assay: Inhibition of EGFR phosphorylation at Y1068 residues in human MCF7 cells after 8 hrs by Western blot analysis; assay type: cell-based

Sequence of Epidermal growth factor receptor (Homo sapiens) (P00533 whole entry): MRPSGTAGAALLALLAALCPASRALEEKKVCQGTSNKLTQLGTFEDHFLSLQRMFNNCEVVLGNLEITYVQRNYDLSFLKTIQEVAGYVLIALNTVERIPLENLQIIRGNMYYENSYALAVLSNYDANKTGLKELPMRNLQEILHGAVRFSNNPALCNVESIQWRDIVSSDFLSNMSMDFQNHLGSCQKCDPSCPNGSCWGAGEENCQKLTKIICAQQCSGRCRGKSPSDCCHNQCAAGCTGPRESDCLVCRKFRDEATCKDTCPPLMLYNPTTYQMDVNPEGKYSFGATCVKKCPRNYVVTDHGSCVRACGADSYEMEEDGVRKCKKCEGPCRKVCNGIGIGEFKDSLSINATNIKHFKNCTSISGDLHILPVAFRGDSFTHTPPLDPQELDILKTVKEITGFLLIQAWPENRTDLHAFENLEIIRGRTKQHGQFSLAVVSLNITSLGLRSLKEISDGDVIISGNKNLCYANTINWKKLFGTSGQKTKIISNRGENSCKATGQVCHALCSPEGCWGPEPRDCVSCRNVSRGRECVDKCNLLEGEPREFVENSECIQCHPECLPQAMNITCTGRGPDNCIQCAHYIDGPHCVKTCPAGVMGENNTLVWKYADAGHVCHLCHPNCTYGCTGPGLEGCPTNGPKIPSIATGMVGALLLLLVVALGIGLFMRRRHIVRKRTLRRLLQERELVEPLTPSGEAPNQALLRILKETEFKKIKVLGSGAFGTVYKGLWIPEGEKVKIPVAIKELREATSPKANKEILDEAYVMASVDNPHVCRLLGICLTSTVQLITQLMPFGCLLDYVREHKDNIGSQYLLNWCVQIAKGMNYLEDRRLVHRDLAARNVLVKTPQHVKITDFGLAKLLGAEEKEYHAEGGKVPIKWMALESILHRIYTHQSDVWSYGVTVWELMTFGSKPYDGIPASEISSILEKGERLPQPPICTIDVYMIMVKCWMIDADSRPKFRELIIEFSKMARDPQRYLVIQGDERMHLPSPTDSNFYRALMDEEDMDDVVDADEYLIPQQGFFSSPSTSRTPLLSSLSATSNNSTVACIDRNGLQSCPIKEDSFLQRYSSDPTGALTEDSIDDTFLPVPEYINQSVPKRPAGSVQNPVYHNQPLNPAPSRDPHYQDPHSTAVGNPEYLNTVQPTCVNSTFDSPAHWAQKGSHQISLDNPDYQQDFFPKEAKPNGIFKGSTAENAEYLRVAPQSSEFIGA

## FC(F)(F)c1ccc(CSc2nc(Nc3ccc(C(F)(F)F)cc3)c3ccccc3n2)cc1
[1]
  Activity: 28.04%
[2]
  Activity: 60.7%
[3]
  viability at 6 µM: 66.5%
[4]
  Activity: 20.7%
[5]
  Activity: 1.28%
[6]
  viability at 6 µM: 70.5%
[7]
  Activity: Active
[8]
  Activity: Active
[9]
  inhibition: Dose-dependent effect
[10]
  inhibition: Dose-dependent effect
